From US7273863B1, “Benzophenones as inhibitors of reverse transcriptase” (SmithKline Beecham Corporation, priority 1999, dated 2007)

What was measured:
HIV-1 (strain IIIB) = experiment: MT4 cell assay, antiviral HIV activity (propidium iodide); assay type: cell-based; details: Human immunodeficiency virus 1, IIIB; Virus Type HIV-1; Assay MT4; read-out: IC50 (nM) Range
Description: Antiviral HIV activity and compound-induced cytotoxicity were measured in parallel by means of a propidium iodide based procedure in the human T-cell lymphotropic virus transformed cell line MT4. Aliquots of the test compounds were serially diluted in medium (RPMI 1640, 10% fetal calf serum (FCS), and gentamycin) in 96-well plates (Costar 3598) using a Cetus Pro/Pette. Exponentially growing MT4 cells were harvested and centrifuged at 1000 rpm for 10 min in a Jouan centrifuge (model CR 4 12). Cell pellets were resuspended in fresh medium (RPMI 1640, 20% FCS, 20% IL-2, and gentamycin) to a density of 5×10^5 cells/ml. Cell aliquots were infected by the addition of HIV-1 (strain IIIB) diluted to give a viral multiplicity of infection of 100×TCID50. A similar cell aliquot was diluted with medium to provide a mock-infected control. Cell infection was allowed to proceed for 1 hr at 37° C. in a tissue culture incubator with humidified 5% CO2 atmosphere. After the 1 hr incubation the virus/cell suspensions were diluted 6-fold with fresh medium, and 125 μl of the cell suspension was added to each well of the plate containing pre-diluted compound. Plates were then placed in a tissue culture incubator with humidified 5% CO2 for 5 days. At the end of the incubation period, 27 μl of 5% Nonidet-40 was added to each well of the incubation plate. After thorough mixing with a Costar multitip pipetter, 60 μl of the mixture was transferred to filter-bottomed 96-well plates. The plates were analyzed in an automated assay instrument (Screen Machine, Idexx Laboratories). The control and standard used was 3′-azido-3′-deoxythymidine tested over a concentration range of 0.01 to 1 μM in every assay. […] The assay-makes use of a propidium iodide dye to estimate the DNA content of each well.
The antiviral effect of a test compound is reported as an IC50, i.e. the inhibitory concentration that would produce a 50% decrease in the HIV-induced cytopathic effect. This effect is measured by the amount of test compound required to restore 50% of the cell growth of HIV-infected MT4 cells, compared to uninfected MT4 cell controls. IC50 was calculated by RoboSage, Automated Curve Fitting Program, version 5.00, 10 Jul. 1995.
For each assay plate, the results (relative fluorescence units, rfU) of wells containing uninfected cells or infected cells with no compound were averaged, respectively. For measurements of compound-induced cytotoxicty, results from wells containing various compound concentrations and uninfected cells were compared to the average of uninfected cells without compound treatment. Percent of cells remaining is determined by the following formula: Percent of cells remaining=(compound−treated uninfected cells, rfU/untreated uninfected cells)×100.
A level of percent of cells remaining of 79% or less indicates a significant level of direct compound-induced cytotoxicity for the compound at that concentration. When this condition occurs the results from the compound-treated infected wells at this concentration are not included in the calculation of IC50.
For measurements of compound antiviral activity, results from wells containing various compound concentrations and infected cells are compared to the average of uninfected and infected cells without compound treatment. Percent inhibition of virus is determined by the following formula: Percent inhibition of virus=(1−((ave. untreated uninfected cells−treated infected cells)/(ave. untreated uninfected cells−ave. untreated infected cells)))×100

NEV-R = experiment: as above; assay type: cell-based; details: Human immunodeficiency virus 1, MT4, read-out: IC50 (nM) Range

| SMILES | IC50 (HIV-1 (strain IIIB)) [nM] | IC50 (NEV-R) [nM] |
| --- | --- | --- |
| Cc1cc(S(N)(=O)=O)ccc1NC(=O)COc1ccc(Cl)cc1C(=O)c1cc(F)cc(F)c1 [Compound 62] | < 10 | < 10 |
| Cc1cc(S(N)(=O)=O)ccc1NC(=O)COc1ccc(Cl)cc1C(=O)c1cc(F)cc(C(F)(F)F)c1 [Compound 78] | < 10 | < 10 |
| Cc1cc2nc[nH]c2cc1NC(=O)COc1ccc(Cl)cc1C(=O)c1cc(F)cc(C(F)(F)F)c1 [Compound 239] | < 10 | < 10 |
| Cc1cc(OCCCS(N)(=O)=O)ccc1NC(=O)COc1ccc(Cl)cc1C(=O)c1cc(F)cc(C(F)(F)F)c1 [Compound 257] | < 10 | < 10 |
| Cc1cc(S(N)(=O)=O)ccc1NC(=O)COc1ccc(Cl)cc1C(=O)c1cccc(C#N)c1 [Compound 448] | < 10 | < 10 |
| Cc1cc2cn[nH]c2cc1NC(=O)COc1ccc(Cl)cc1C(=O)c1cccc(C#N)c1 [Compound 453] | < 10 | < 10 |
| Cc1cc(S(N)(=O)=O)ccc1NC(=O)COc1ccc(Cl)cc1C(=O)c1cc(Cl)cc(C#N)c1 [Compound 475] | < 10 | < 10 |
| Cc1cc(C)cc(C(=O)c2cc(Cl)ccc2OCC(=O)Nc2ccc(S(N)(=O)=O)cc2C)c1 [Compound 478] | < 10 | < 10 |
| Cc1cc(S(N)(=O)=O)ccc1NC(=O)COc1ccc(Cl)cc1C(=O)c1cc(F)cc(C#N)c1 [Compound 491] | < 10 | < 10 |
| CCc1cc(C#N)cc(C(=O)c2cc(Cl)ccc2OCC(=O)Nc2ccc(S(N)(=O)=O)cc2C)c1 [Compound 498] | < 10 | < 10 |
| Cc1cc(C#N)cc(C(=O)c2cc(Cl)ccc2OCC(=O)Nc2ccc(S(N)(=O)=O)nc2C)c1 [Compound 503] | < 10 | < 10 |
| Cc1cc(C#N)cc(C(=O)c2cc(Cl)ccc2OCC(=O)Nc2ccc(S(N)(=O)=O)cc2C)c1 [Compound 564] | < 10 | < 10 |
| Cc1cc(C#N)cc(C(=O)c2cc(Cl)ccc2OCC(=O)Nc2cnc(S(N)(=O)=O)cc2C)c1 [Compound 587] | < 10 | < 10 |
| Cc1cc(C#N)cc(C(=O)c2cc(Cl)ccc2OCC(=O)Nc2ccc(OCCCN3CC=CC3)cc2C)c1 [Compound 593] | < 10 | < 10 |
| Cc1cc(S(N)(=O)=O)ccc1NC(=O)COc1ccc(Cl)cc1C(=O)c1cccc(C#N)n1 [Compound 637] | < 10 | < 10 |
